For test [1], the system named is MCF7-Sh-WISP2 cells. The test is described as follows: Cell cycle progression by propidium iodide flow cytometry. The class given is cell-based, human. To be noted: 380 nM. The method, then: Figure S5. Cell cycle progression of MCF7-Sh-WISP2 cells in response to compound 3 exposure.
After treatment with 380 nM of 3 (hyalodendrin) (corresponding to 1.9 10-5 nmol of drug per cell), cells were collected, counted and fixed with 70 % ethanol. Cells were then stained with 40 μg/mL propidium iodide (PI) (Biolegend) containing RNaseA (100 µg/mL), prior analysis on a Gallios flow cytometer (Beckman Coulter, Inc, Villepinte, France). The results were analyzed using the Venturi One V6 software (Applied Cytometry).
(1 picture or pasted object on this page, not shown here)

In test [2] the test system is MCF7-Sh-WISP2 cells. Briefly: γ-H2AX foci immunofluorescence. The format is cell-based, human. As to conditions: 1 µM.
The target of test [3] is cytoplasmic GAPDH from Arabidopsis thaliana (AtGAPDH) (Arabidopsis thaliana, UniProt P25858). The test is described as follows: Covalent adduct formation with GAPDH by MALDI-TOF mass spectrometry. To be noted: data not shown. The class given is binding. From the text:
Compound 3 is a member of the epidithiodioxopiperazines, a class of natural products characterized by a sulfur-bridged dioxopiperazine that is believed to play an important role in their biological activity. […] The role of the sulfur-bridged dioxopiperazine in the activity of epidithiodioxopiperazines has been attributed to two main mechanisms: (1) mixed disulfide formation with proteins and (2) production of reactive oxygen species (ROS) upon the formation of the disulfide bond after reduction by a cellular reductant. […] To test whether 3 might act through these two processes, we first assessed its propensity to form in vitro covalent adducts with the glycolytic glyceraldehyde-3-phosphate dehydrogenase enzyme (GAPDH). GAPDH is a widely used model protein to study molecular mechanism of thiol-based post-translational modifications as its catalytic cysteine is prone to multiple reversible and irreversible oxidation states. […] Trxs are small ubiquitous thiol/disulfide oxidoreductases with multiple recognized roles in cellular processes and human diseases including cancers. However, since mammal NTR is a selenoprotein that is not easily produced recombinantly, we used here the thioredoxin system from the eukaryotic yeast Saccharomyces cerevisiae (Figure 6). […]

Test [4] has as its system LS174T. Briefly: MTT cell viability assay, LS174T. The class given is cell-based. As to conditions: Homo sapiens, colon. Here is the method:
(§1) Cellular viability was determined by the MTT (methylthiazolyldiphenyl-tetrazolium bromide) assay. Briefly, cells were exposed to the indicated concentrations of crude extracts or compounds 1–4 for five doubling times and then incubated for 3 h at 37 °C with MTT. Formazan crystals were then dissolved in DMSO and optical density measured at 570 nm in a microplate reader. The half-maximal inhibitory concentration (IC50) was determined. Values given for crude extracts are averages of at least two experiments done in duplicate. IC50 values calculated for the four isolated compounds and the commercially available 4-hydroxy-tamoxifen (Sigma-Aldrich) are averages of at least three experiments done in duplicate.
(Tetrazolium assays rely on reduction of a dye to a coloured formazan, in cell work by metabolically active cells.)

For test [5], the system named is DLD1. The test is described as follows: MTT cell viability assay, DLD1. The class given is cell-based. As to conditions: Homo sapiens, DLD-1; colon. The method, then:
as §1

Test [6] deals with HCT116. The test is described as follows: MTT cell viability assay, HCT116. The class given is cell-based. As to conditions: Homo sapiens, HCT-116; colon. Here is the method:
as §1

The target in test [7] is T1, NADPH-dependent thioredoxin reductase (Trr1) (Saccharomyces cerevisiae, UniProt P29509).
T1 construct: made in house
T1 sequence (P29509 whole entry): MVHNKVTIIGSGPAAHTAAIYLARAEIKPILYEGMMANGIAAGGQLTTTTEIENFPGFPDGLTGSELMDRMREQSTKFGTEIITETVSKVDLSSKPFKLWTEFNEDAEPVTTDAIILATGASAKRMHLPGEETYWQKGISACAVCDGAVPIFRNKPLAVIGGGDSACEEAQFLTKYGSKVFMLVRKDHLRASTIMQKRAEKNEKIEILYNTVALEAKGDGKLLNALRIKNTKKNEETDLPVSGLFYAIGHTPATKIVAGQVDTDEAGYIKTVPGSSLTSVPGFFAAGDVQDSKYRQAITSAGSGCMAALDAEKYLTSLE
The test is described as follows: In vitro reduction by NADPH thioredoxin reductase alone (NADPH consumption). The format is biochemical. As to conditions: yeast NTR (Trr1) alone, versus ACN control. Here is the method:
Thioredoxin 1 (Trx1) and NADPH-dependent thioredoxin reductase (Trr1) from Saccharomyces cerevisiae were cloned and produced as described previously. Thioredoxin activity was measured spectrophotometrically (Uvikon XS; Secomam) in 1 mL cuvette by following NADPH consumption at 340 nm over 2 min. The reaction was performed in 100 µM NADPH, 246 nM of Trr1 in 30 mM Tris-HCl buffer (pH 7.9) and in the presence or not of 65 nM of Trx1. The reaction was initiated by adding 10 µL of 50 mM of 3 in acetonitrile or 10 µL of acetonitrile (ACN, Control experiment). For each condition, NADPH consumption experiments were performed in triplicate and results were represented as the mean ± SD. The significance of the results was evaluated by Student’s t-test.

Test [8] deals with 3T3-F442A cells. The test is described as follows: MTT cell viability assay, 3T3-F442A pre-adipocytes. The format is cell-based, murine. To be noted: Mus musculus. The method, then:
as §1

The results in this text go back to paper PMC7230232, “Secondary Metabolites from the Culture of the Marine-derived Fungus Paradendryphiella salina PC 362H and Evaluation of the Anticancer Activity of Its Metabolite Hyalodendrin” (Marine Drugs, 2020).

Several values for one entry are separate records, joined by “and”; a condition that tells them apart may be missing. Equal values may be shown once. Read-outs that look alike come from different tables or passages of the source.

Chain of cytoplasmic GAPDH from Arabidopsis thaliana (AtGAPDH) (P25858 whole entry): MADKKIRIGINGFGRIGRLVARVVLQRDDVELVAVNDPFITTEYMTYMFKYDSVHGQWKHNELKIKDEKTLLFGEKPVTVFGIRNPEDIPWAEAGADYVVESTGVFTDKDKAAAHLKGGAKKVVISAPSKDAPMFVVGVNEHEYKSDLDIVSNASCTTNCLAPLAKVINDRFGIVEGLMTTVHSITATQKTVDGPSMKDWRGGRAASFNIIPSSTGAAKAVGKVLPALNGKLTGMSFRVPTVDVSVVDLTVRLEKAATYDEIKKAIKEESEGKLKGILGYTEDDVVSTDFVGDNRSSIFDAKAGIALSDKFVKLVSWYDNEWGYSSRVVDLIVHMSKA

As a reminder, the IC50 is the concentration at which inhibition is half-maximal. Consider `CN1C(=O)[C@@]2(Cc3ccccc3)SS[C@]1(CO)C(=O)N2C` [Compound 3, (3R, 6R) Hyalodendrin], for which the cell cycle progression entry in test [1] is on record as “no significant changes”. In addition, the γ-H2AX signal result in test [2] (24 and 48 h) was “punctuated labeling in their nucleus”; in test [2] (3 h), “no γ-H2AX signal could be detected”. In test [3], the “mixed disulfide formation with catalytic cysteine of AtGAPDH (mass shift)” value is listed as “not able to form a mixed disulfide”. The IC50 in test [4] is 158 ± 13 nM; in test [5], 40 ± 5.8 nM; in test [6], 48 ± 9.3 nM; in test [8] (read-out: IC50 3T3-F442A), 0.099 µg/mL and 300 nM; in test [8] (read-out: IC50 3T3F442A) it was 305 ± 4.2 nM. Also, in test [7], the NADPH consumption increase entry is recorded as “ca. three”.
